Source: ChEMBL document CHEMBL1201862, “PubChem BioAssay data set” (2004)
Active and inactive are the calls of the source. Cut-off read from the data, not from the text of the source: actives have a measured IC50 and inactives only a lower limit.

Molecular target: Envelope glycoprotein gp160 (Human immunodeficiency virus 1, UniProt Q6QLK5)
Experiment: inhibitors of HIV fusion peptide binding, primary screen, biochemical, uHTS, fluorescence dequenching (AID 1986)

Envelope glycoprotein gp160, sequence (Q6QLK5 whole entry, the tested form may be a part): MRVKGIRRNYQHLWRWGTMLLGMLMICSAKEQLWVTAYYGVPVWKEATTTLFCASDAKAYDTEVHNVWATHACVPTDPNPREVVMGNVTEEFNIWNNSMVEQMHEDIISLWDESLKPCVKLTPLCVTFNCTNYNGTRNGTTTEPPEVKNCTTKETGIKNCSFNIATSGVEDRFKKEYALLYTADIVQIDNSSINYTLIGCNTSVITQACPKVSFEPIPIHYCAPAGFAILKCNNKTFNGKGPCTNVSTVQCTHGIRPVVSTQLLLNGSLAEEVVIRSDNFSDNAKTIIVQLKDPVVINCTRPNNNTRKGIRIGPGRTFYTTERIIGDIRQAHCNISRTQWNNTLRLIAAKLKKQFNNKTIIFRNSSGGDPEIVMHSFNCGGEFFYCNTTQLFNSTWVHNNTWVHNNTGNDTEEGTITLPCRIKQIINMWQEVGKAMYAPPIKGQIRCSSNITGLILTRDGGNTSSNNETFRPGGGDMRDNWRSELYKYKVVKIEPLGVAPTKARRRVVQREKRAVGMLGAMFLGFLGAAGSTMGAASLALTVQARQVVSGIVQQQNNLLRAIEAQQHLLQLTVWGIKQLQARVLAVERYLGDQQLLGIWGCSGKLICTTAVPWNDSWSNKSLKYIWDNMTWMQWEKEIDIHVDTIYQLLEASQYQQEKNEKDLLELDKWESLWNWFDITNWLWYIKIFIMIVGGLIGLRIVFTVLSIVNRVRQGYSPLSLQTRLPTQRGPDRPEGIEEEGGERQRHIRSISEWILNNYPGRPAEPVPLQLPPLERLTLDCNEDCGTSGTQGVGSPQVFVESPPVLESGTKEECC

Row | Structure (SMILES) | IC50
1 | CC1=CN2C(=N)/C(=C/c3cc(Cl)c(O)c(Cl)c3)C(=O)N=C2S1 | 26.2 µM (active)
2 | O=C(NN1C(=O)/C(=C\c2ccc(O)c([N+](=O)[O-])c2)SC1=S)c1ccccc1Cl | 24.9 µM (active)
3 | COc1cc(/C=C2/C(=O)NN(c3ccc(Cl)cc3)C2=O)cc(Br)c1O | 15.5 µM (active)
